From patent publication US20120231072A1, “THERMO-RESPONSIVE HYDROGEL COMPOSITIONS” (Chemisches Institut Schaefer AG, priority 2011, published 2012)
Counter-ions that a name gives are not always drawn. Like-named read-outs stand apart in the source and are kept apart here.

Columns and labels:
[1] = cited from earlier work
[2] = tested on: endotoxin-induced uveitis (EIU) animal model; conditions: 24 hours after intravitreal treatment; LPS alone ~45% vasodilation
Description: Adult male Lewis rats (weight 310-350 g) were used as an endotoxin-induced uveitis (EIU) animal model. LPS from Salmonella Typhimurium (Sigma Aldrich, St. Louis, Mo.) was mixed with PBS immediately prior to the injection. The animals were divided as followed:
Control: intravitreal injection of LPS at day 0. ˜5 μl intravitreal injection of control gel (no dexamethasone) at 24 hrs after the LPS induction (day 1);
Treatment control: intravitreal injection of LPS at day 0. ˜5 μl intravitreal injection of dexamethasone (10 mg/ml dose, Sigma) at 24 hrs after the LPS induction;
Treatment 1: intravitreal injection of LPS at day 0. ˜5 μl intravitreal injection of dexamethasone hydrogel (10 mg/ml dose, Sigma) at 24 hrs after the LPS induction; and
Treatment 2: intravitreal injection of LPS at day 0. ˜5 μl subconjunctival injection of dexamethasone hydrogel (10 mg/ml dose, Sigma) at 24 hrs after the LPS induction.
The dexamethasone was loaded by equilibrating 0.1 ml of hydrogel in 2 ml of dexamethasone drug solution. SLO images and blood flow measurement were obtained before the LPS induction, 1, 2, 3, and 6 days after the LPS (and dexametheasone treatment). Furthermore, in one animal, the thermo-hydrogel (control) was applied directly to the cornea (simulate eyedrops).

[3] = Drug encapsulation efficiency in PLGA particles; assay type: physicochemical
Description: The clear organic mixture was emulsified into an external aqueous phase (5 ml, 2% w/v PVA) with vortexing for 20 seconds followed by sonication on ice at 55 W for 5 minutes. […] Nanospheres were harvested by ultracentrifugation at 16,000 g for 10 min, after which the resultant pellet was re-suspended in DI water by sonication and washed twice with DI water. […] Dynamic light scattering (DLS) was used to characterize the size of the nanospheres. To investigate nanosphere encapsulation in thermo-responsive hydrogels, nanospheres were added into the hydrogel precursor solutions at 0, 2.5, 5, and 10 mg/ml prior to polymerization initiated by the addition of TEMED. The hydrogels were then washed 5 times with PBS every 20 minutes, as described for hydrogels with no nanospheres. Swelling ratio was tested for hydrogels with varying concentration of nanospheres at both room and body temperature.
The drug concentration was determined spectrophotometrically at 240 nm. […] The encapsulation efficiency was calculated as (actual drug loaded/total drug used)×100%.

Structure (SMILES) | solubility in water [1] [mg/mL] | P (oil/water) (Methylene chloride + methanol / 0.2% PVA) | P (oil/water) (Methylene chloride + methanol / 2% PVA) | P (oil/water) (Methylene chloride + methanol / 2% PVA + 0.25N (NH4)2SO4) | P (oil/water) (Methylene chloride + methanol / 2% PVA + 0.5N NaCl) | degree of dilation of retinal vessels [2] [%] | encapsulation efficiency ([3]; dexamethasone 1:2 (w/w) of PLGA) [%] | encapsulation efficiency ([3]; dexamethasone 1:10 (w/w) of PLGA) [%]
C[C@@H]1C[C@H]2[C@@H]3CCC4=CC(=O)C=C[C@]4(C)[C@@]3(F)[C@@H](O)C[C@]2(C)[C@@]1(O)C(=O)COP(=O)(O)O [DSP, Dexamethasone 21-phosphate disodium salt] | > 50 | 0.06 | 0.15 | 0.86 | 0.26 |  |  | 
C[C@@H]1C[C@H]2[C@@H]3CCC4=CC(=O)C=C[C@]4(C)[C@@]3(F)[C@@H](O)C[C@]2(C)[C@@]1(O)C(=O)CO [dexamethasone] |  |  |  |  |  | ~15 | 7.5 | 2.5
